“And” between values parts separate entries of the source, which are not always exact repeats. Identical values can stand only once. Inconclusive results and toxic doses are left out. The calls were made as follows: active = survival T/C of 150% or more; inactive = T/C below 125% in these data.
System: CD2F1 mice, L1210 leukemia ip, survival T/C
Assay: NCI In Vivo Anticancer Drug Screen. Data for tumor model L1210 Leukemia (intraperitoneal) in CD2F1 (CDF1) mice
Details: endpoint: mean survival time, higher = longer survival
Method in brief: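 Each value reflects a quotient of treated over vehicle control outcomes in mice with a transplanted tumor.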

[1] = dose: 100.0 mg/kg/injection, schedule: Q01DX009 (ip), vehicle: Klucel (hydroxypropylcellulose) (HPC)
[2] = dose: 200.0 mg/kg/injection, schedule: Q01DX009 (ip), vehicle: Klucel (hydroxypropylcellulose) (HPC)
[3] = dose: 400.0 mg/kg/injection, schedule: Q01DX009 (ip), vehicle: Klucel (hydroxypropylcellulose) (HPC)
[4] = dose: 100.0 mg/kg/injection, schedule: Q01DX009 (ip), vehicle: saline with Tween-80
[5] = dose: 200.0 mg/kg/injection, schedule: Q01DX009 (ip), vehicle: saline with Tween-80
[6] = dose: 400.0 mg/kg/injection, schedule: Q01DX009 (ip), vehicle: saline with Tween-80

Measured: T/C

COc1cc(C(=O)C(=O)c2cc(OC)c(OC)c(OC)c2)cc(OC)c1OC
inactive: [1] 101 % of control | [2] 106 % of control | [3] 113 % of control

O=C(Oc1c(Cl)c(Cl)c(Cl)c(Cl)c1Cl)c1ccc([N+](=O)[O-])cc1
inactive: [4] 101 % of control | [5] 97 % of control | [6] 95 % of control

N#CCc1ccccc1
inactive: dose: 10.0 mg/kg/injection, schedule: Q01DX001 (ip), vehicle: saline 105 % of control | dose: 20.0 mg/kg/injection, schedule: Q01DX001 (ip), vehicle: saline 105 % of control

CCOC(=O)C1(C(=O)O)CC2C(C)C=CC(C)C2C1 (configuration not stated)
inactive: [1] 100 % of control | [2] 102 % of control | [3] 96 % of control

CC(=O)C1=C(O)C2(O)C(=O)c3c(c(C)c4ccc(C)c(O)c4c3O)CC2C(N)C1=O (configuration not stated)
inactive: dose: 3.75 mg/kg/injection, schedule: Q01DX009 (ip), vehicle: saline + alcohol 102 % of control and 105 % of control | dose: 7.3 mg/kg/injection, schedule: Q01DX009 (ip), vehicle: saline + alcohol 103 % of control | dose: 7.5 mg/kg/injection, schedule: Q01DX009 (ip), vehicle: saline + alcohol 107 % of control | dose: 15.0 mg/kg/injection, schedule: Q01DX009 (ip), vehicle: saline + alcohol 107 % of control and 108 % of control | dose: 30.0 mg/kg/injection, schedule: Q01DX009 (ip), vehicle: saline + alcohol 115 % of control | dose: 60.0 mg/kg/injection, schedule: Q01DX009 (ip), vehicle: saline + alcohol 107 % of control and 111 % of control

N#Cc1ncn(C2OC(CO)C(O)C2O)c1N (configuration not stated)
inactive: dose: 100.0 mg/kg/injection, schedule: Q04DX002 (ip), vehicle: saline with Tween-80 102 % of control | dose: 200.0 mg/kg/injection, schedule: Q04DX002 (ip), vehicle: saline with Tween-80 105 % of control | dose: 400.0 mg/kg/injection, schedule: Q04DX002 (ip), vehicle: saline with Tween-80 109 % of control

COc1ccc(NC(=O)CC(C)=O)cc1
inactive: [4] 97 % of control | [5] 103 % of control | [6] 100 % of control

CC(OC(=O)c1ccc([N+](=O)[O-])cc1)C(C)(C)C (configuration not stated)
inactive: dose: 100.0 mg/kg/injection, schedule: Q01DX001 (ip), vehicle: saline 98 % of control | dose: 200.0 mg/kg/injection, schedule: Q01DX001 (ip), vehicle: saline 100 % of control | dose: 400.0 mg/kg/injection, schedule: Q01DX001 (ip), vehicle: saline 96 % of control

CN(C)c1ccc2c(N(C)C)cc(N(C)C)nc2c1
inactive: dose: 0.78 mg/kg/injection, schedule: Q01DX009 (ip), vehicle: Klucel (hydroxypropylcellulose) (HPC) 106 % of control | dose: 1.56 mg/kg/injection, schedule: Q01DX009 (ip), vehicle: Klucel (hydroxypropylcellulose) (HPC) 102 % of control | dose: 3.12 mg/kg/injection, schedule: Q01DX009 (ip), vehicle: Klucel (hydroxypropylcellulose) (HPC) 104 % of control | dose: 6.25 mg/kg/injection, schedule: Q01DX009 (ip), vehicle: Klucel (hydroxypropylcellulose) (HPC) 98 % of control | dose: 12.5 mg/kg/injection, schedule: Q01DX009 (ip), vehicle: Klucel (hydroxypropylcellulose) (HPC) 113 % of control and 96 % of control | dose: 25.0 mg/kg/injection, schedule: Q01DX009 (ip), vehicle: Klucel (hydroxypropylcellulose) (HPC) 88 % of control
